Measurements: ChEMBL document CHEMBL1932988, “Synthesis, antimicrobial, anticancer evaluation and QSAR studies of 6-methyl-4-[1-(2-substituted-phenylamino-acetyl)-1H-indol-3-yl]-2-oxo/thioxo-1,2,3,4-tetrahydropyrimidine-5-carboxylic acid ethyl esters” (Eur J Med Chem, 2012)
Values after ≈ are worked out from the molar mass of the structure shown.

System: HCT-116
Assay: cells
Conditions: Homo sapiens, HCT-116, 72 h

| IC50 [µg/mL] | Compound |
| --- | --- |
| 5 (≈ 9.77 µM) | CCOC(=O)C1=C(C)NC(=O)NC1c1cn(C(=O)CNc2ccc([N+](=O)[O-])cc2Cl)c2ccccc12 (stereo unspecified) |
| 600 (≈ 1220 µM) | CCOC(=O)C1=C(C)NC(=O)NC1c1cn(C(=O)CNc2ccc([N+](=O)[O-])cc2C)c2ccccc12 (stereo unspecified) |

System: Aspergillus niger
Assay: Antifungal activity against Aspergillus niger MTCC 8189 after 7 days by tube dilution method hrs followed by subculturing
Type: functional
Conditions: not given

| Compound | MFC [uM/ml] |
| --- | --- |
| CCOC(=O)C1=C(C)NC(=O)NC1c1cn(C(=O)CNc2ccc([N+](=O)[O-])cc2Cl)c2ccccc12 (stereo unspecified) | >0.1 |
| CCOC(=O)C1=C(C)NC(=O)NC1c1cn(C(=O)CNc2ccc([N+](=O)[O-])cc2C)c2ccccc12 (stereo unspecified) | >0.1 |

System: Bacillus subtilis
Assay: Antibacterial activity against Bacillus subtilis MTCC 2063 after 24 hrs by tube dilution method
Type: functional
Conditions: not given

| Compound | -logMIC |
| --- | --- |
| CCOC(=O)C1=C(C)NC(=O)NC1c1cn(C(=O)CNc2ccc([N+](=O)[O-])cc2Cl)c2ccccc12 (stereo unspecified) | 1.61 |
| CCOC(=O)C1=C(C)NC(=O)NC1c1cn(C(=O)CNc2ccc([N+](=O)[O-])cc2C)c2ccccc12 (stereo unspecified) | 1.29 |

System: Staphylococcus aureus
Assay: Ratio of MIC to MBC for Staphylococcus aureus MTCC 2901
Type: functional
Conditions: not given

| Compound | Ratio |
| --- | --- |
| CCOC(=O)C1=C(C)NC(=O)NC1c1cn(C(=O)CNc2ccc([N+](=O)[O-])cc2Cl)c2ccccc12 (stereo unspecified) | 3 |
| CCOC(=O)C1=C(C)NC(=O)NC1c1cn(C(=O)CNc2ccc([N+](=O)[O-])cc2C)c2ccccc12 (stereo unspecified) | 3 |

System: Candida albicans
Assay: Antifungal activity against Candida albicans MTCC 227 after 48 hrs by tube dilution method
Type: functional
Conditions: not given

| Compound | -logMIC |
| --- | --- |
| CCOC(=O)C1=C(C)NC(=O)NC1c1cn(C(=O)CNc2ccc([N+](=O)[O-])cc2Cl)c2ccccc12 (stereo unspecified) | 1.61 |
| CCOC(=O)C1=C(C)NC(=O)NC1c1cn(C(=O)CNc2ccc([N+](=O)[O-])cc2C)c2ccccc12 (stereo unspecified) | 1.59 |

System: Escherichia coli
Assay: Antibacterial activity against Escherichia coli MTCC 1652 after 24 hrs by tube dilution method hrs followed by subculturing
Type: functional
Conditions: not given

| Compound | MBC [uM/ml] |
| --- | --- |
| CCOC(=O)C1=C(C)NC(=O)NC1c1cn(C(=O)CNc2ccc([N+](=O)[O-])cc2Cl)c2ccccc12 (stereo unspecified) | >0.1 |
| CCOC(=O)C1=C(C)NC(=O)NC1c1cn(C(=O)CNc2ccc([N+](=O)[O-])cc2C)c2ccccc12 (stereo unspecified) | >0.1 |

System: Bacillus subtilis
Assay: Antibacterial activity against Bacillus subtilis MTCC 2063 after 24 hrs by tube dilution method hrs followed by subculturing
Type: functional
Conditions: not given

| Compound | MBC [uM/ml] |
| --- | --- |
| CCOC(=O)C1=C(C)NC(=O)NC1c1cn(C(=O)CNc2ccc([N+](=O)[O-])cc2Cl)c2ccccc12 (stereo unspecified) | >0.1 |
| CCOC(=O)C1=C(C)NC(=O)NC1c1cn(C(=O)CNc2ccc([N+](=O)[O-])cc2C)c2ccccc12 (stereo unspecified) | >0.1 |

System: Candida albicans
Assay: Antifungal activity against Candida albicans MTCC 227 after 48 hrs by tube dilution method hrs followed by subculturing
Type: functional
Conditions: not given

| Compound | MFC [uM/ml] |
| --- | --- |
| CCOC(=O)C1=C(C)NC(=O)NC1c1cn(C(=O)CNc2ccc([N+](=O)[O-])cc2Cl)c2ccccc12 (stereo unspecified) | >0.1 |
| CCOC(=O)C1=C(C)NC(=O)NC1c1cn(C(=O)CNc2ccc([N+](=O)[O-])cc2C)c2ccccc12 (stereo unspecified) | >0.1 |

System: MCF7
Assay: cells
Conditions: Homo sapiens, MCF7, 72 h
Description: Cytotoxicity against human MCF7 cells after 72 hrs by MTT assay

| IC50 [µg/mL] | Compound |
| --- | --- |
| 50 (≈ 97.7 µM) | CCOC(=O)C1=C(C)NC(=O)NC1c1cn(C(=O)CNc2ccc([N+](=O)[O-])cc2Cl)c2ccccc12 (stereo unspecified) |
| 50 (≈ 102 µM) | CCOC(=O)C1=C(C)NC(=O)NC1c1cn(C(=O)CNc2ccc([N+](=O)[O-])cc2C)c2ccccc12 (stereo unspecified) |

System: Candida albicans
Assay: Ratio of MIC to MFC for Candida albicans MTCC 227
Type: functional
Conditions: not given

| Compound | Ratio |
| --- | --- |
| CCOC(=O)C1=C(C)NC(=O)NC1c1cn(C(=O)CNc2ccc([N+](=O)[O-])cc2Cl)c2ccccc12 (stereo unspecified) | 3 |
| CCOC(=O)C1=C(C)NC(=O)NC1c1cn(C(=O)CNc2ccc([N+](=O)[O-])cc2C)c2ccccc12 (stereo unspecified) | 3 |

System: Aspergillus niger
Assay: Ratio of MIC to MFC for Aspergillus niger MTCC 8189
Type: functional
Conditions: not given

| Compound | Ratio |
| --- | --- |
| CCOC(=O)C1=C(C)NC(=O)NC1c1cn(C(=O)CNc2ccc([N+](=O)[O-])cc2Cl)c2ccccc12 (stereo unspecified) | 3 |
| CCOC(=O)C1=C(C)NC(=O)NC1c1cn(C(=O)CNc2ccc([N+](=O)[O-])cc2C)c2ccccc12 (stereo unspecified) | 3 |

System: Aspergillus niger
Assay: Antifungal activity against Aspergillus niger MTCC 8189 after 7 days by tube dilution method
Type: functional
Conditions: not given

| Compound | -logMIC |
| --- | --- |
| CCOC(=O)C1=C(C)NC(=O)NC1c1cn(C(=O)CNc2ccc([N+](=O)[O-])cc2Cl)c2ccccc12 (stereo unspecified) | 1.61 |
| CCOC(=O)C1=C(C)NC(=O)NC1c1cn(C(=O)CNc2ccc([N+](=O)[O-])cc2C)c2ccccc12 (stereo unspecified) | 1.59 |

System: not listed separately
Assay: Partition coefficient, log P of the compound
Type: physicochemical
Conditions: octanol/water

| logP | Compound |
| --- | --- |
| 1.99 | CCOC(=O)C1=C(C)NC(=O)NC1c1cn(C(=O)CNc2ccc([N+](=O)[O-])cc2Cl)c2ccccc12 (stereo unspecified) |
| 1.94 | CCOC(=O)C1=C(C)NC(=O)NC1c1cn(C(=O)CNc2ccc([N+](=O)[O-])cc2C)c2ccccc12 (stereo unspecified) |

System: Escherichia coli
Assay: Ratio of MIC to MBC for Escherichia coli MTCC 1652
Type: functional
Conditions: not given

| Compound | Ratio |
| --- | --- |
| CCOC(=O)C1=C(C)NC(=O)NC1c1cn(C(=O)CNc2ccc([N+](=O)[O-])cc2Cl)c2ccccc12 (stereo unspecified) | 3 |
| CCOC(=O)C1=C(C)NC(=O)NC1c1cn(C(=O)CNc2ccc([N+](=O)[O-])cc2C)c2ccccc12 (stereo unspecified) | 3 |

System: Escherichia coli
Assay: Antibacterial activity against Escherichia coli MTCC 1652 after 24 hrs by tube dilution method
Type: functional
Conditions: not given

| Compound | -logMIC |
| --- | --- |
| CCOC(=O)C1=C(C)NC(=O)NC1c1cn(C(=O)CNc2ccc([N+](=O)[O-])cc2Cl)c2ccccc12 (stereo unspecified) | 1.61 |
| CCOC(=O)C1=C(C)NC(=O)NC1c1cn(C(=O)CNc2ccc([N+](=O)[O-])cc2C)c2ccccc12 (stereo unspecified) | 1.59 |

System: Staphylococcus aureus
Assay: Antibacterial activity against Staphylococcus aureus MTCC 2901 after 24 hrs by tube dilution method
Type: functional
Conditions: not given

| Compound | -logMIC |
| --- | --- |
| CCOC(=O)C1=C(C)NC(=O)NC1c1cn(C(=O)CNc2ccc([N+](=O)[O-])cc2Cl)c2ccccc12 (stereo unspecified) | 1.61 |
| CCOC(=O)C1=C(C)NC(=O)NC1c1cn(C(=O)CNc2ccc([N+](=O)[O-])cc2C)c2ccccc12 (stereo unspecified) | 1.59 |

System: Staphylococcus aureus
Assay: Antibacterial activity against Staphylococcus aureus MTCC 2901 after 24 hrs followed by subculturing
Type: functional
Conditions: not given

| Compound | MBC [uM/ml] |
| --- | --- |
| CCOC(=O)C1=C(C)NC(=O)NC1c1cn(C(=O)CNc2ccc([N+](=O)[O-])cc2Cl)c2ccccc12 (stereo unspecified) | >0.1 |
| CCOC(=O)C1=C(C)NC(=O)NC1c1cn(C(=O)CNc2ccc([N+](=O)[O-])cc2C)c2ccccc12 (stereo unspecified) | >0.1 |

System: Bacillus subtilis
Assay: Ratio of MIC to MBC for Bacillus subtilis MTCC 2063
Type: functional
Conditions: not given

| Compound | Ratio |
| --- | --- |
| CCOC(=O)C1=C(C)NC(=O)NC1c1cn(C(=O)CNc2ccc([N+](=O)[O-])cc2Cl)c2ccccc12 (stereo unspecified) | 3 |
| CCOC(=O)C1=C(C)NC(=O)NC1c1cn(C(=O)CNc2ccc([N+](=O)[O-])cc2C)c2ccccc12 (stereo unspecified) | 3 |
